Results: patent publication EP2832223A1, “HERBICIDAL COMPOSITION” (Ishihara Sangyo Kaisha, Ltd., priority 2012, dated 2013)

Legend:
Assay type in all cases: in vivo
[1] = test system: common cocklebur (Xanthium strumarium L.); assay: Test Example 1: pot test, foliar treatment, visual growth inhibition; details: foliar treatment at 4.3 to 4.8-leaf stage, 22nd day after treatment, read-out: Growth inhibition rate (%) of common cocklebur Measured value
Source text: In the present invention, a synergistic effect means a higher herbicidal activity of three active ingredients combined, than the simple sum of the respective herbicidal activities of the three active ingredients (the expected activity). The activity expected by the combination of three active ingredients can be calculated as follows (Colby S.R., "Weed", vol. 15, p. 20-22, 1967). […] Upland field soil was put into a 1/300,000 ha pot, and seeds of common cocklebur (Xanthium strumarium L.) were sown. […] Click, manufactured by BASF) and EC formulation containing dimethenamid-P as an active ingredient (tradename: Spectrum, manufactured by BASF) were diluted with water (in an amount corresponding to 1,000 L/ha) and applied for foliar treatment by a small sprayer. On the 22nd day after treatment, the state of growth of the common cocklebur was visually observed to determine the growth inhibition rate (%) in accordance with the following evalution standard. The growth inhibition rate (%) (measured value) and the growth inhibition rate (%) (calculated value) calculated by the Colby's formula are shown in Table 1.

[2] = test system: wild oat (Avena fatua L.); assay: Test Example 4: pot test, soil treatment, visual growth inhibition; details: soil treatment, 28th day after treatment, read-out: Growth inhibition rate (%) of wild oat Measured value
Experimental: (§1) Upland field soil was put into a 1/1,000,000 ha pot, and seeds of wild oat (Avena fatua L.) were sown. On the next day, predetermined amounts of ONEHOPE NYUZAI (tradename), Click (tradename) and a wettable powder containing bicyclopyrone prepared in accordance with a conventional formulation method were diluted with water (in an amount corresponding to 1,000 L/ha) and applied for soil treatment by a small sprayer.
(§2) On the 28th day after treatment, the state of growth of the wild oat was visually observed to determine the growth inhibition rate (%). The growth inhibition rate (%) (measured value) and the growth inhibition rate (%) calculated in the same manner as in the above Test Example 1 are shown in Table 4.

[3] = test system: annual ragweed (Ambrosia artemisiifolia L.); assay: Test Example 11: pot test, soil treatment, visual growth inhibition; details: soil treatment, 28th day after treatment, read-out: Growth inhibition rate (%) of annual ragweed Measured value
Experimental: as §1, with “1/300,000” for “1/1,000,000”, “annual ragweed (Ambrosia artemisiifolia” for “wild oat (Avena fatua”, “Click (tradename), Mikado” for “Click”
as §2, with “annual ragweed” for “wild oat”, “11.” for “4.”

[4] = test system: wild oat (Avena fatua L.); assay: Test Example 2: pot test, soil treatment, visual growth inhibition; details: 28th day after treatment, read-out: Growth inhibition rate (%) of wild oat Measured value
Experimental: (§3) Upland field soil was put into a 1/500,000 ha pot, and seeds of wild oat (Avena fatua L.) were sown. On the next day, predetermined amounts of ONEHOPE NYUZAI (tradename), Click (tradename) and SC formulation containing mesotrione as an active ingredient (tradename: Callisto, manufactured by Syngenta) were diluted with water (in an amount corresponding to 1,000 L/ha) and applied for soil treatment by a small sprayer.
as §2, with “2.” for “4.”

[5] = test system: rostrate sesbania (Sesbania rostrata Bremek. & Oberm.); assay: Test Example 8: pot test, soil treatment, visual growth inhibition; details: soil treatment, 28th day after treatment, read-out: Growth inhibition rate (%) of rostrate sesbania Measured value
Experimental: Upland field soil was put into a 1/300,000 ha pot, and seeds of rostrate sesbania (Sesbania rostrata Bremek. & Oberm.) were sown. On the next day, predetermined amounts of ONEHOPE NYUZAI (tradename), Click (tradename), Spectrum (tradename) and Clio (tradename) were diluted with water (in an amount corresponding to 1,000 L/ha) and applied for soil treatment by a small sprayer.
as §2, with “rostrate sesbania” for “wild oat”, “8.” for “4.”

[6] = test system: sunn-hemp (Crotalaria juncea L.); assay: Test Example 7: pot test, soil treatment, visual growth inhibition; details: soil treatment, 28th day after treatment, read-out: Growth inhibition rate (%) of sunn-hemp Measured value
Experimental: as §1, with “1/300,000” for “1/1,000,000”, “sunn-hemp (Crotalaria juncea” for “wild oat (Avena fatua”, “Click (tradename), Mikado” for “Click”
as §2, with “sunn-hemp” for “wild oat”, “7.” for “4.”

[7] = test system: Japanese millet (Echinochloa utilis Ohwi et Yabuno); assay: Test Example 5: pot test, soil treatment, visual growth inhibition; details: soil treatment, 28th day after treatment, read-out: Growth inhibition rate (%) of Japanese millet Measured value
Experimental: as §3, with “1/300,000” for “1/500,000”, “Japanese millet (Echinochloa utilis Ohwi et Yabuno)” for “wild oat (Avena fatua L.)”, “topramezone” for “mesotrione”, “Clio,” for “Callisto,”, “BASF)” for “Syngenta)”
as §2, with “Japanese millet” for “wild oat”, “5.” for “4.”

SMILES	inhibition at 500 g/ha ([1]; 500 g/ha) [%]	inhibition at 500 g/ha ([2]; 500 g/ha) [%]	inhibition at 200 g/ha ([3]; 200 g/ha) [%]	inhibition at 500 g/ha ([4]; 500 g/ha) [%]	inhibition at 2000 g/ha ([5]; 2000 g/ha) [%]	inhibition at 200 g/ha ([6]; 200 g/ha) [%]	inhibition at 500 g/ha ([7]; 500 g/ha) [%]	inhibition at 30 g/ha ([1]; 30 g/ha) [%]	inhibition at 30 g/ha ([2]; 30 g/ha) [%]	inhibition at 100 g/ha ([3]; 100 g/ha) [%]	inhibition at 30 g/ha ([4]; 30 g/ha) [%]	inhibition at 10 g/ha ([5]; 10 g/ha) [%]	inhibition at 100 g/ha ([6]; 100 g/ha) [%]	inhibition at 30 g/ha ([7]; 30 g/ha) [%]
CCNc1nc(Cl)nc(NC(C)(C)C)n1 [Terbuthylazine, N^2-tert-butyl-6-chloro-N^4-ethyl-1,3,5-triazine-2,4-diamine]	10	15	20	60	0	30	50	–	–	–	–	–	–	–
COc1cc(OC)nc(NC(=O)NS(=O)(=O)c2ncccc2C(=O)N(C)C)n1 [Nicosulfuron, 2-(4,6-dimethoxypyrimidin-2-ylcarbamoylsulfamoyl)-N,N-dimethylnicotinamide]	–	–	–	–	–	–	–	0	30	0	70	0	40	40
